The text below walks through data of US6337334B1, “Pyrimidine derivatives” (Kowa Co., Ltd., priority 1994, dated 2002).

Where a name gives a salt, the structure may show the parent alone.

One series deals with T1, ETA receptor (Sus scrofa, UniProt Q29010).
T1 construct: Porcine thoracic aorta which was separated from the fatty tissue and then was removed endothelium with gauze was minced, and then homogenized; from tissue; host or cells: porcine thoracic aorta smooth muscle membranes
T1 sequence (Q29010 21-427): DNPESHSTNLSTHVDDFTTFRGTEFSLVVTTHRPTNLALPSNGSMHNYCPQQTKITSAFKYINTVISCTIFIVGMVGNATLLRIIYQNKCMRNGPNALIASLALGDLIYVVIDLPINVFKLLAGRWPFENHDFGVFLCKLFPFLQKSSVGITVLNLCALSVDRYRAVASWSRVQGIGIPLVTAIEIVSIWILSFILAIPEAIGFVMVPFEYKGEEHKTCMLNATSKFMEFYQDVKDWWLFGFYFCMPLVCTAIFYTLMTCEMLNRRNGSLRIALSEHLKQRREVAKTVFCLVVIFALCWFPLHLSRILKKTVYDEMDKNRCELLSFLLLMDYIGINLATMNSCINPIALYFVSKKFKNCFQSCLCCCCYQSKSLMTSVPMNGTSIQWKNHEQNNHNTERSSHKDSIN
Nature of the series: Endothelin binding inhibition experiment, 125I-endothelin-1 binding assay, ETA receptor membrane samples from smooth muscles of porcine thoracic aorta. To be noted: 125I-endothelin-1 2×10^−11 M, porcine thoracic aorta membranes, 2 hours at 25° C. The method, then: (§1) Endothelin Binding Inhibition Experiment
Preparation of receptor membrane samples (ETA) from smooth muscles of porcine thoracic aorta:
Porcine thoracic aorta which was separated from the fatty tissue and then was removed endothelium with gauze was minced, and then homogenized in three times the volume of Tris-HCl buffer (pH 7.4) (buffer A) containing 0.25 M sucrose, 3 mM ethylenediaminetetraacetic acid, 5 μg/ml of aprotinin, 10 μg/ml of pepstatin A, 10 μg/ml of leupeptin, and 0.1 μM p-amidinophenyl-methanesulfonyl fluoride. After centrifugation for 30 minutes at 1,000×g, the supernatant was further centrifuged for 30 minutes at 100,000×g. The pellets were suspended in buffer A, and recentrifuged for 30 minutes at 100,000×g. The pellets were suspended in buffer A and the suspension was stored at −80° C.
^125I-Endothelin-1 Binding Assay
The thus-obtained membrane sample (1 μl) was incubated together with ^125I-endothelin-1 (2×10^−11 M) and various concentrations of the compounds, for 2 hours at 25° C., in 250 μl in total volume of 50 mM Tris-HCl buffer (pH 7.4) containing 0.5% bovine serum albumin. The incubated mixture was filtered by use of an HVPP filters (pore size 0.45 μm, product of Milipore). The filters were washed with cold buffer A four times, and then measured with a gamma-ray counter (Aroka Autowell Gamma System ARC-251). Preparation of receptor membrane sample (ETB) from rat brain and assay of ^125I endothelin-1: […]

The target in another series is T2, ETB receptor (Rattus norvegicus, UniProt P21451).
T2 construct: Rat brain tissue was minced, and a crude receptor membrane sample was prepared; from tissue; host or cells: rat brain crude membranes
T2 sequence (P21451 27-442): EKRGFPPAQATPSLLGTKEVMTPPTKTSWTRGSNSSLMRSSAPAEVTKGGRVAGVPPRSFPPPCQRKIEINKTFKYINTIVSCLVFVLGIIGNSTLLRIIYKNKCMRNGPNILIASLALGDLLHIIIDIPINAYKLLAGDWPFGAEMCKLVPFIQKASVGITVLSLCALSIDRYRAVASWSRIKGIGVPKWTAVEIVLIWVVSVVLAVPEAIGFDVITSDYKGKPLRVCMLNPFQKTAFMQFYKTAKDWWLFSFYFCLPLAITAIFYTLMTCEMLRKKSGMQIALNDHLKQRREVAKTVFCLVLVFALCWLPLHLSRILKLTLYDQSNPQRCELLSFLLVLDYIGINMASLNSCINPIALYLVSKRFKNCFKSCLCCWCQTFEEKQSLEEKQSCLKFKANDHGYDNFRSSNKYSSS
Nature of the series: Endothelin binding inhibition experiment, 125I-endothelin-1 binding assay, ETB receptor membrane sample from rat brain. To be noted: 125I-endothelin-1, rat brain membranes. The method, then:
as §1
The thus-obtained membrane sample (1 μl) was incubated together with ^125I-endothelin-1 (2×10^−11 M) and various concentrations of the compounds, for 2 hours at 25° C., in 250 μl in total volume of 50 mM Tris-HCl buffer (pH 7.4) containing 0.5% bovine serum albumin. The incubated mixture was filtered by use of an HVPP filters (pore size 0.45 μm, product of Milipore). The filters were washed with cold buffer A four times, and then measured with a gamma-ray counter (Aroka Autowell Gamma System ARC-251). Preparation of receptor membrane sample (ETB) from rat brain and assay of ^125I endothelin-1:
Rat brain tissue was minced, and a crude receptor membrane sample was prepared in a manner similar to that used in the aforementioned case of porcine thoracic aorta. Also, ^125I-endothelin-1 assay was performed in the same manner as described above.

In general, melting point refers to the temperature, or range, at which the solid turns liquid. `COc1ccccc1Oc1c(NS(=O)(=O)c2ccc(C(C)(C)C)cc2)nc(-c2ncccn2)nc1OCCC(=O)Nc1ccccc1` (as salt: sodium) [Compound No. 18, N-phenyl-3-[6-(4-t-butylphenylsulfonylamino)-5-(2-methoxyphenoxy)-2-(2-pyrimidinyl)-4-pyrimidinyloxy]-propionamide] registered a melting point of 162 to 163 °C. On the same count and under the same terms, the value for `COc1ccccc1CNC(=O)CCOc1nc(-c2ncccn2)nc(NS(=O)(=O)c2ccc(C(C)(C)C)cc2)c1Oc1ccccc1OC` (as salt: sodium) [Compound No. 34, N-(2-methoxybenzyl)-3-[6-(4-t-butylphenylsulfonylamino)-5-(2-methoxyphenoxy)-2-(2-pyrimidinyl)-4-pyrimidinyloxy]propionamide] was 138 to 139 °C; that for `CCCCCNC(=O)CCOc1nc(-c2ncccn2)nc(NS(=O)(=O)c2ccc(C(C)(C)C)cc2)c1Oc1ccccc1OC` (as salt: sodium) [Compound No. 43, N-(n-pentyl)-3-[6-(4-t-butylphenylsulfonylamino)-5-(2-methoxyphenoxy)-2-(2-pyrimidinyl)-4-pyrimidinyloxy]-propionamide] was 142 to 144 °C. The compound `COc1ccccc1NC(=O)CCOc1nc(-c2ncccn2)nc(NS(=O)(=O)c2ccc(C(C)(C)C)cc2)c1Oc1ccccc1OC` (as salt: sodium) [Compound No. 48, N-(2-methoxyphenyl)-3-[6-(4-t-butylphenylsulfonylamino)-5-(2-methoxyphenoxy)-2-(2-pyrimidinyl)-4-pyrimidinyloxy]propionamide] gave a melting point of 120 to 122 °C. Usually IC50 stands for the concentration needed to halve the response being measured. Read a high IC50 as lower potency. With `COc1ccccc1Oc1c(NS(=O)(=O)c2ccc(C(C)(C)C)cc2)nc(-c2ncccn2)nc1OCC(=O)O` [Compound No. 2, [6-(4-t-butylphenyl-sulfonylamino)-5-(2-methoxyphenoxy)-2-(2-pyrimidinyl)-4-pyrimidinyloxy]acetic acid], the IC50 on ETA receptor stood at 9.4 µM; at ETB receptor, 0.8 µM.

In the case of `CCOC(=O)CCOc1nc(-c2ncccn2)nc(NS(=O)(=O)c2ccc(C(C)(C)C)cc2)c1Oc1ccccc1OC` [Compound No. 9, ethyl 3-[6-(4-t-butylphenylsulfonylamino)-5-(2-methoxyphenoxy)-2-(2-pyrimidinyl)-4-pyrimidinyloxy]propionate], the half-maximal inhibitory concentration (IC50) at ETA receptor was found to be 0.72 µM; on ETB receptor it was 2.9 µM. In the case of `COc1ccccc1Oc1c(NS(=O)(=O)c2ccc(C(C)(C)C)cc2)nc(-c2ncccn2)nc1OCC(=O)OCc1ccccc1` [Compound No. 10, benzyl [6-(4-t-butylphenylsulfonylamino)-5-(2-methoxyphenoxy)-2-(2-pyrimidinyl)-4-pyrimidinyloxy]acetate], the half-maximal inhibitory concentration (IC50) was determined as 0.51 µM on ETA receptor and 0.65 µM at ETB receptor.

In the case of `COc1ccccc1Oc1c(NS(=O)(=O)c2ccc(C(C)(C)C)cc2)nc(-c2ncccn2)nc1OCC(=O)Oc1cccc(Cl)c1` [Compound No. 12, 3-chlorophenyl [6-(4-t-butylphenylsulfonylamino)-5-(2-methoxyphenoxy)-2-(2-pyrimidinyl)-4-pyrimidinyloxy]acetate], the IC50 on ETA receptor was found to be 0.32 µM; at ETB receptor, 0.82 µM. As for `COc1ccccc1Oc1c(NS(=O)(=O)c2ccc(C(C)(C)C)cc2)nc(-c2ncccn2)nc1OCCC(=O)NCc1ccccc1` [Compound No. 14, N-benzyl-3-[6-(4-t-butylphenylsulfonylamino)-5-(2-methoxyphenoxy)-2-(2-pyrimidinyl)-4-pyrimidinyloxy]-propionamide], the IC50 at ETA receptor came to 0.82 µM; at ETB receptor, 0.0028 µM.

As for `COc1ccccc1Oc1c(NS(=O)(=O)c2ccc(C(C)(C)C)cc2)nc(-c2ncccn2)nc1OCC(=O)NCc1ccccc1` [Compound No. 15, N-benzyl-[6-(4-t-butylphenylsulfonylamino)-5-(2-methoxyphenoxy)-2-(2-pyrimidinyl)-4-pyrimidinyloxy]acetamide], the figures for the IC50 at ETA receptor and at ETB receptor were 3.2 µM and 0.016 µM, respectively.

`COc1ccccc1Oc1c(NS(=O)(=O)c2ccc(C(C)(C)C)cc2)nc(-c2ncccn2)nc1OCCC(=O)Nc1ccccc1` [Compound No. 18, N-phenyl-3-[6-(4-t-butylphenylsulfonylamino)-5-(2-methoxyphenoxy)-2-(2-pyrimidinyl)-4-pyrimidinyloxy]-propionamide]: the figures for the IC50 on ETA receptor and on ETB receptor were 0.15 µM and 0.023 µM, respectively. In the same order, the values of `COc1ccccc1Oc1c(NS(=O)(=O)c2ccc(C(C)(C)C)cc2)nc(-c2ncccn2)nc1OCCCC(=O)Nc1ccccc1` [Compound No. 25, N-phenyl-4-[6-(4-t-butylphenylsulfonylamino)-5-(2-methoxyphenoxy)-2-(2-pyrimidinyl)-4-pyrimidinyloxy]butyramide] are 1.9 µM and 0.037 µM.

Take `COc1ccccc1NC(=O)CCCOc1nc(-c2ncccn2)nc(NS(=O)(=O)c2ccc(C(C)(C)C)cc2)c1Oc1ccccc1OC` [Compound No. 29, N-(2-methoxyphenyl)-4-[6-(4-t-butylphenylsulfonylamino)-5-(2-methoxyphenoxy)-2-(2-pyrimidinyl)-4-pyrimidinyloxy]-butyramide]: the 50% inhibitory concentration (IC50) on ETA receptor worked out at 3.1 µM; at ETB receptor, 0.03 µM. Taken in the same sequence, the figures for `COc1ccccc1CNC(=O)CCOc1nc(-c2ncccn2)nc(NS(=O)(=O)c2ccc(C(C)(C)C)cc2)c1Oc1ccccc1OC` [Compound No. 34, N-(2-methoxybenzyl)-3-[6-(4-t-butylphenylsulfonylamino)-5-(2-methoxyphenoxy)-2-(2-pyrimidinyl)-4-pyrimidinyloxy]propionamide] were 0.39 µM and 0.22 µM. In the same order, the values of `COc1ccccc1NC(=O)CCOc1nc(-c2ncccn2)nc(NS(=O)(=O)c2ccc(C(C)(C)C)cc2)c1Oc1ccccc1OC` [Compound No. 48, N-(2-methoxyphenyl)-3-[6-(4-t-butylphenylsulfonylamino)-5-(2-methoxyphenoxy)-2-(2-pyrimidinyl)-4-pyrimidinyloxy]propionamide] are 0.16 µM and 0.00075 µM. In the same order, the values of `COc1ccccc1Oc1c(NS(=O)(=O)c2ccc(C(C)(C)C)cc2)nc(-c2ncccn2)nc1OCCC(=O)Nc1ccccc1C(C)C` [Compound No. 53, N-(2-isopropylphenyl)-3-[6-(4-t-butylphenylsulfonylamino)-5-(2-methoxyphenoxy)-2-(2-pyrimidinyl)-4-pyrimidinyloxy]propionamide] are 0.098 µM and 0.00082 µM. Consider `COc1ccccc1Oc1c(NS(=O)(=O)c2ccc(C(C)(C)C)cc2)nc(-c2ncccn2)nc1OCCC(=O)Nc1ccccn1` [Compound No. 92, N-(2-pyridyl)-3-[6-(4-t-butylphenylsulfonylamino)-5-(2-methoxyphenoxy)-2-(2-pyrimidinyl)-4-pyrimidinyloxy]-propionamide], for which the values for the half-inhibitory concentration (IC50) on ETA receptor and at ETB receptor were 0.0095 µM and 0.1 µM, respectively.

Take “N-(2-chlorophenethyl)-4-[6-(4-t-butylphenylsulfonylamino)-5-(2-methoxyphenoxy)-2-(2-pyrimidinyl)-4-pyrimidinyloxy]-butylamide [Compound No. 38]”: the half-maximal inhibitory concentration (IC50) at ETA receptor is 16.9 µM; on ETB receptor, 0.019 µM.
